SMILES strings stand for the structures.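 Cultured in 96-well plates, cells were exposed to test compound for 48 hours across five concentrations. The concentration for 50% growth inhibition is given as GI50. TGI: total growth inhibition.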

Test systems include HOP-18 NSCLC; KM20L2 colon; LXFL 529 NSCLC; MDA-N; RXF-631 renal; SNB-78 CNS; XF 498 CNS; DLD-1 colon.
What all share (assay): growth of human tumour cells (NCI), 48 h

With `CC1CCC2C(C)C(=O)OC3OC4(C)CCC1C32OO4` (stereo not given), the TGI with HOP-18 NSCLC, with KM20L2 colon, in the assay on LXFL 529 NSCLC, in the assay with MDA-N, in the assay with RXF-631 renal and with SNB-78 CNS was greater than 100 µM each time. In the assay with XF 498 CNS, this compound displayed a TGI greater than 100 µM. Besides, the GI50 in the assay with MDA-N is greater than 100 µM.

Consider `O=C(NC(=Nc1ccccc1)SCSC(=Nc1ccccc1)NC(=O)c1ccco1)c1ccco1`, for which the TGI is greater than 100 µM in the assay with DLD-1 colon; greater than 100 µM with KM20L2 colon; greater than 100 µM with LXFL 529 NSCLC; greater than 100 µM in the assay with RXF-631 renal; greater than 100 µM in the assay with SNB-78 CNS; 66.1 µM in the assay with XF 498 CNS.

For the compound `O=C(O)CCCCn1ccc(=O)[nH]c1=O`, the TGI with MDA-N is greater than 100 µM.

The compound `O=C(C=Nc1ccccc1C(=O)[O-])c1cccs1.O=C(C=Nc1ccccc1C(=O)[O-])c1cccs1.[Ni+2]` registered a TGI in the assay on KM20L2 colon greater than 100 µM.

For the compound `COc1cc2c(NCCCCCO)ncnc2c(OC)c1OC`, the TGI with MDA-N is greater than 100 µM.

Turning to `O=C(Cc1ccccc1[N+](=O)[O-])C(CO)c1ccccc1[N+](=O)[O-]` (stereo not given), the TGI in the assay with DLD-1 colon, in the assay on HOP-18 NSCLC, in the assay with KM20L2 colon, in the assay on LXFL 529 NSCLC, in the assay with SNB-78 CNS and in the assay on XF 498 CNS was greater than 100 µM throughout.

In the assay on MDA-N, `N#CC(C#N)=CNCCN1CCN(C=C(C#N)C#N)CC1` gave a TGI greater than 100 µM.

Take `Nc1nc(N)c(CCCCc2ccccc2)c(C=O)n1`: the TGI was 46.2 µM with DLD-1 colon; 89.2 µM in the assay with HOP-18 NSCLC; 90 µM in the assay on KM20L2 colon; greater than 100 µM in the assay on RXF-631 renal; 81.6 µM in the assay on SNB-78 CNS.

As to `COc1ccc2c(c1)[n+]([O-])c(-c1cccc(Cl)c1)c(N)[n+]2[O-]`, the TGI in the assay with DLD-1 colon, in the assay on HOP-18 NSCLC, in the assay with KM20L2 colon, with SNB-78 CNS and in the assay on XF 498 CNS was greater than 100 µM each time.

`COC(=O)C12CCC(C)(C)CC1C1=CCC3C4(C)CC(O)C(O)C(C)(C(=O)OC)C4CCC3(C)C1(CO)CC2` (stereo not given) gave a TGI in the assay on MDA-N of 26.3 µM.

Turning to `O=[N+]([O-])c1cc(-c2nc(=S)[nH][nH]2)ccc1O`, the TGI in the assay with DLD-1 colon, in the assay with KM20L2 colon, with LXFL 529 NSCLC, in the assay on RXF-631 renal and in the assay with SNB-78 CNS was greater than 100 µM in each case.

In the case of `O=C(CCC(=O)Nc1ccc(Cl)c(Cl)c1)CC(=O)c1ccc2ccccc2c1`, the TGI in the assay on DLD-1 colon, with HOP-18 NSCLC, with KM20L2 colon, with LXFL 529 NSCLC, in the assay with RXF-631 renal and in the assay with SNB-78 CNS was greater than 100 µM throughout.

As to `O=C1C=C(Nc2ccccc2C(=O)CC(=O)C(=O)Nc2ccc(Cl)cc2)c2ccccc2C1=O`, the TGI was 35.7 µM in the assay on DLD-1 colon; 8.72 µM in the assay on HOP-18 NSCLC; greater than 100 µM in the assay with KM20L2 colon; 42.6 µM with LXFL 529 NSCLC; greater than 80.8 µM with RXF-631 renal; 81 µM in the assay with SNB-78 CNS. Also, the TGI in the assay on XF 498 CNS stood at 28.6 µM.

For the compound `COc1ccc2c(c1)Oc1cc(O)ccc1[C@H]2c1ccccc1C(=O)NC(C)c1ccccc1` (stereo not given in full), the TGI came out at 43.4 µM with DLD-1 colon, 35.3 µM in the assay with KM20L2 colon, 28.7 µM in the assay on LXFL 529 NSCLC and 33.5 µM in the assay with SNB-78 CNS.

For the compound `Cc1cc(Cl)nc2ccc(Cc3ccc4nc(Cl)cc(C)c4c3)cc12`, in the assay with MDA-N, the TGI is greater than 100 µM.

Take `O=C(O)CN(c1ccccc1)S(=O)(=O)c1cccc([N+](=O)[O-])c1`: the TGI in the assay on DLD-1 colon, in the assay with HOP-18 NSCLC, in the assay with KM20L2 colon, in the assay with LXFL 529 NSCLC and in the assay with XF 498 CNS was greater than 100 µM throughout.

As to `O=C(COc1ccccc1Cl)N1N=C(c2ccccc2)CC1(O)c1ccccc1` (stereo not given), the TGI with DLD-1 colon is 53.7 µM; in the assay with KM20L2 colon, 29.6 µM; in the assay on LXFL 529 NSCLC, greater than 100 µM; in the assay with SNB-78 CNS it was 43.2 µM; in the assay on XF 498 CNS, 35.5 µM.

`COc1ccc(Nc2nc3cc(C(F)(F)F)ccc3nc2-c2ccccc2)cc1OC`: the TGI in the assay on DLD-1 colon was greater than 100 µM; with LXFL 529 NSCLC it was greater than 100 µM; in the assay on SNB-78 CNS, 66.7 µM; with XF 498 CNS it was 11.2 µM.

As to `CN1C(=O)CC2(C)c3cc(O)cc(Br)c3N(C)C12` (stereo not given), the TGI in the assay with HOP-18 NSCLC, in the assay with KM20L2 colon, in the assay with LXFL 529 NSCLC, in the assay on SNB-78 CNS and in the assay on XF 498 CNS was greater than 100 µM in each case.

Take `CC(C)(C)N/N=C(\C(=O)Nc1cccc(Cl)c1)C1C(=O)Nc2ccccc2S1=O` (stereo not given): the TGI with DLD-1 colon, in the assay with HOP-18 NSCLC, in the assay on KM20L2 colon, with LXFL 529 NSCLC, with RXF-631 renal and with XF 498 CNS was greater than 100 µM each time.

For `CCc1ccccc1NC(=O)C(=O)C(C#N)c1ccccc1Cl` (stereo not given), the TGI in the assay on DLD-1 colon, in the assay with HOP-18 NSCLC, with KM20L2 colon, in the assay with LXFL 529 NSCLC, in the assay with RXF-631 renal and with SNB-78 CNS was greater than 100 µM each time. The TGI in the assay with XF 498 CNS is greater than 100 µM.

As for `CC1(C)NC(=O)N(CCCCCCN2C(=O)NC(C)(C)C2=O)C1=O`, the TGI with DLD-1 colon, with HOP-18 NSCLC, in the assay on KM20L2 colon, in the assay with LXFL 529 NSCLC and in the assay on SNB-78 CNS was greater than 100 µM throughout.

The compound `O=Cc1cccc2ccc3ccccc3c12` gave a TGI in the assay with MDA-N of 73.2 µM.

`CC1CCCC(C(=O)CC2CC(=O)NC(=O)C2)C1=O` (stereo not given) displayed a TGI with MDA-N greater than 100 µM.

On to `N#CCCN(CCC#N)c1ccc(/C=C(/NC(=O)c2cc([N+](=O)[O-])ccc2Cl)C(=O)NN)cc1`, for which the TGI in the assay with DLD-1 colon, in the assay on HOP-18 NSCLC, in the assay on KM20L2 colon, in the assay with LXFL 529 NSCLC and in the assay with SNB-78 CNS was greater than 100 µM each time.

For the compound `N#CC1C[C@@H]2CC3(CCC2CN1C(=O)c1ccccc1)OCCO3` (stereo not given in full), the TGI with DLD-1 colon, with HOP-18 NSCLC, in the assay with KM20L2 colon, in the assay with LXFL 529 NSCLC, in the assay with SNB-78 CNS and in the assay on XF 498 CNS was greater than 100 µM each time.

As to `COc1cccc(C=O)c1C(=O)c1cc(O)ccc1O`, the TGI was 30.3 µM in the assay with DLD-1 colon; 76.5 µM with HOP-18 NSCLC; greater than 100 µM in the assay on KM20L2 colon; greater than 60.8 µM in the assay on SNB-78 CNS; greater than 100 µM in the assay on XF 498 CNS.

As to `COC(=O)[C@H]1COC(=S)N1C(=O)[C@@H](C)[C@H](O)C(C)C`, the TGI with DLD-1 colon, with HOP-18 NSCLC, in the assay with KM20L2 colon, in the assay on LXFL 529 NSCLC, in the assay on RXF-631 renal and with SNB-78 CNS was greater than 100 µM each time. This compound had a TGI with XF 498 CNS greater than 100 µM.

`CC(=O)c1ccccc1NC(=O)C(=O)C(C(=O)c1ccc2ccccc2c1)C1OC(=O)c2ccccc21` (stereo not given): the TGI came out at 32.3 µM with DLD-1 colon; 38.7 µM in the assay on HOP-18 NSCLC; 94 µM with KM20L2 colon; 26.3 µM in the assay on LXFL 529 NSCLC; 84.8 µM with SNB-78 CNS; 18.1 µM with XF 498 CNS.

In the case of `[O-]/N=[N+](/[O-])C1CCCCC1=[N+]1CCOCC1` (stereo not given), the TGI in the assay with LXFL 529 NSCLC, in the assay on SNB-78 CNS and in the assay on XF 498 CNS was greater than 100 µM each time.

Turning to `COc1cccc2c1OC1Sc3ccccc3-c3nn(-c4ccccc4)c-2c31` (stereo not given), the TGI in the assay with DLD-1 colon, with HOP-18 NSCLC, in the assay on KM20L2 colon, in the assay on LXFL 529 NSCLC, in the assay with RXF-631 renal and in the assay with SNB-78 CNS was greater than 100 µM each time. This compound also had a TGI in the assay with XF 498 CNS greater than 100 µM.

For `N/C=N/S(=O)(=O)c1ccc(NC(=O)COC(=O)c2cccc3c(=O)c4ccccc4[nH]c23)cc1`, the TGI in the assay with DLD-1 colon, in the assay on HOP-18 NSCLC and in the assay on XF 498 CNS was greater than 100 µM throughout.

Regarding `C/C(=N\NC(=S)N1CCN(c2ccccn2)CC1)c1ccccn1`, the TGI in the assay with DLD-1 colon was 15.2 µM; with LXFL 529 NSCLC it was 14.2 µM; in the assay on MDA-N it was 13.3 µM; in the assay on SNB-78 CNS it was 21.5 µM. In addition, in the assay on XF 498 CNS, the GI50 is 0.0236 µM.

As to `COC(=O)Cc1c([C@@]2(C)CCCC(C)(C)C2)ccc2c1C(=O)OC2`, the TGI in the assay with DLD-1 colon was 12.2 µM; in the assay with HOP-18 NSCLC, 47.1 µM; in the assay on LXFL 529 NSCLC, 27.2 µM; in the assay with RXF-631 renal, 29.4 µM; in the assay on SNB-78 CNS it was 37.3 µM.

Turning to `COC(=O)[C@H](CC(C)C)NC(=O)[C@H](Cc1ccccc1)N1CC2C=CC1C2` (stereo not given in full), the TGI in the assay on HOP-18 NSCLC, in the assay on KM20L2 colon, with LXFL 529 NSCLC and with XF 498 CNS was greater than 100 µM in each case.

As for `COC(=O)Oc1nn(C(=O)OC)c(=O)c2ccccc12`, in the assay on MDA-N, the TGI is greater than 100 µM.

As to `Cc1cc(=O)[nH]c(CNC(=O)c2ccc3ccccc3c2)n1`, the TGI with DLD-1 colon, with HOP-18 NSCLC, in the assay with KM20L2 colon, with LXFL 529 NSCLC, in the assay on RXF-631 renal and with XF 498 CNS was greater than 100 µM each time.

The record behind these values is PubChem BioAssay (NCI).
